{
  "source": "a melting point compilation (Tetko et al.; mined from patent text by program, amines drawn as free bases though some values may be those of a salt)",
  "data": [
    {"units": {"melting point": "°C"}, "values": [
      {"smiles": "CCN1CCN(Cc2ccc(NC(=O)Nc3ccc(Oc4cc(Cl)ncn4)cc3)cc2)CC1", "melting point": "203 to 204"},
      {"smiles": "COC(C)c1ccc(OCCCN2CCC(c3noc4cc(F)ccc34)CC2)c(O)c1", "note": "(configuration not stated)", "melting point": "98 to 100"},
      {"smiles": "COc1ccccc1-n1c(=O)[nH]c2c(C(N)=O)nc(-c3ccc4nc[nH]c4c3)nc21", "melting point": 306},
      {"smiles": "Nc1nc(N)c2nc(N)n(COC(CO)CO)c2n1", "melting point": "206 to 208"},
      {"smiles": "CCCCN1CCC(CCC(=O)c2ccc(N)nc2OC)CC1", "melting point": "85 to 89"},
      {"smiles": "C[C@H](N)Cn1ncc2ccc3oc(C(=O)NCCCN4CCCC4=O)cc3c21", "melting point": 82},
      {"smiles": "COc1ccc(S(=O)(=O)Nc2ccccc2NC(=O)c2ccccc2)cc1OC", "melting point": "183 to 184"},
      {"smiles": "NC(=O)N1CCN(c2nn(-c3ccccc3Cl)c3ccccc23)CC1", "melting point": "156 to 158"},
      {"smiles": "Cc1cccc2c1NC(C(Cl)(Cl)Cl)OC2", "note": "(configuration not stated)", "melting point": "69 to 70"},
      {"smiles": "COC(=O)c1ccc(O)c(C(=O)CC(=O)C=Cc2ccccc2)c1", "melting point": "138 to 140"},
      {"smiles": "Nc1cnccc1Oc1ccc2[nH]ccc2c1", "melting point": "155 to 157"},
      {"smiles": "CN(C)CC#CCNC(=O)/C=C\\C(=O)O", "melting point": "155 to 157"},
      {"smiles": "CC(C)NC1CN(c2c(F)cc3c(=O)c(C(=O)O)cn(-c4nc(N)c(F)cc4F)c3c2Br)C1", "melting point": "> 203"},
      {"smiles": "CN1CCC(Cc2ccccc2)(Oc2ccc([N+](=O)[O-])cc2)CC1", "melting point": "116 to 117"},
      {"smiles": "O=C1c2ccccc2C(=O)c2sc(-c3ccccc3)nc21", "melting point": 249},
      {"smiles": "O=C(Nc1ccc(OCCN2CCCC2=O)c2ccccc12)c1cc(F)cc(N2CCCCC2)c1", "melting point": "161 to 162"},
      {"smiles": "CCC1(CC)C(=O)ON(C(=O)c2cc(OC)c(OC)c(OC)c2)C1=O", "melting point": "103 to 106"},
      {"smiles": "COC(=O)CCc1ccc(O)c([N+](=O)[O-])c1", "melting point": "60 to 62"},
      {"smiles": "CCCn1nc(C(C)C)c(C(=O)O)c1Cc1ccc(-c2ccccc2C(=O)O)cc1", "melting point": "226 to 230"},
      {"smiles": "Cc1ccc(NC(Nc2ccc(C)cc2)Nc2ccc(C)cc2)cc1", "melting point": "130 to 131"},
      {"smiles": "O=C(c1ccccc1C(c1ccc(O)cc1)c1ccc(O)cc1)N(C1CCCCC1)C1CCCCC1", "melting point": "> 300"},
      {"smiles": "Cc1ccccc1C1SC2(CCN(C)CC2)c2ccccc21", "note": "(configuration not stated)", "melting point": "132 to 134"},
      {"smiles": "COc1cc(C(=O)N2Cc3ccc(C(=O)N(C)CC(O)CO)n3Cc3ccccc32)ccc1-c1ccccc1C(F)(F)F", "note": "(configuration not stated)", "melting point": "119 to 123"},
      {"smiles": "COC(=O)c1ccc(C(=O)Nc2nc(-c3cccc(C)c3)c(-c3ccncn3)s2)cc1", "melting point": "339 to 341"},
      {"smiles": "CN(c1ccccc1)c1nc(N)nc2nc[nH]c12", "melting point": "147 to 152"},
      {"smiles": "Cc1scc2c1N(C(=O)Cl)c1ccccc1NC2=O", "melting point": "238 to 239"},
      {"smiles": "CCCc1sc(-c2ccccc2)nc1OC(=O)NC(C)(C)C", "melting point": "97 to 98"},
      {"smiles": "Cc1ccc(S(=O)(=O)Oc2ccc3c4c(nn3CCNCCO)-c3cnccc3C(=O)c24)cc1", "melting point": "131 to 133"},
      {"smiles": "O=[N+]([O-])c1ccc(Cl)cc1Nc1ccccc1Cl", "melting point": 97},
      {"smiles": "C=C(C)C(=O)OCCCOc1ccc(-c2cc(OC(=O)C(=C)C)cc(-c3ccc(OCCOC(=O)C(=C)C)cc3)c2)cc1F", "melting point": 70},
      {"smiles": "COc1ccc(-c2ccc(CC3CC=CC3)cc2)cc1", "melting point": "75 to 77"},
      {"smiles": "O=c1[nH]c2cc(Cl)ccc2c(O)c1Sc1ccc(O)cc1", "melting point": "> 300"},
      {"smiles": "CN1C(=O)CN=C(c2ccccc2F)c2c1cc(Cl)c(N)c2Cl", "melting point": 234},
      {"smiles": "CC(C)c1nc(COCc2ccccc2)n(CC(C)(C)O)c1Sc1cc(Cl)cc(Cl)c1", "melting point": "181 to 182"},
      {"smiles": "O=c1[nH]c2cc(Cl)c(Cl)c(Cn3cncn3)c2[nH]c1=O", "melting point": "> 320"},
      {"smiles": "NC(=O)C1CCc2cc(C(=O)c3ccccc3)c(O)cc21", "note": "(configuration not stated)", "melting point": "205 to 207"},
      {"smiles": "CCc1cc(Cl)c(S(C)(=O)=O)cc1C(=O)O", "melting point": "180 to 183"},
      {"smiles": "O=C(c1ccccc1)c1oc2ccccc2c1-c1ccc(-c2ccc(OC(Cc3ccccc3)C(=O)O)cc2)cc1", "note": "(configuration not stated)", "melting point": "159 to 161"},
      {"smiles": "NCCNc1cc(-n2cccn2)nc(-c2ccco2)n1", "melting point": "104 to 105"},
      {"smiles": "CNc1nc(-c2ccccc2)c(-c2nc3ccccc3c(=O)n2-c2ccc(OC)cc2)s1", "melting point": "235 to 236"},
      {"smiles": "O=C(O)COC(c1cccc(-c2nnc(Nc3ccc(Cl)c(Cl)c3)s2)c1)c1cccc(C(F)(F)F)c1", "note": "(configuration not stated)", "melting point": "89 to 91"},
      {"smiles": "O=C(CBr)CN1C(=O)c2ccccc2C1=O", "melting point": "139 to 141"},
      {"smiles": "O=Cc1ccc2c(c1)ncn2-c1cccc(-c2ccccc2)c1", "melting point": "170 to 172"},
      {"smiles": "ONC(CCc1ccccc1)CCc1ccccc1", "melting point": "54 to 55"},
      {"smiles": "c1ccc2c(c1)OCc1c(-c3nc(C4CC4)no3)ncn1-2", "melting point": "169 to 173"},
      {"smiles": "O=C(O)COCc1nn(Cc2ccc(F)cc2)c2ccccc12", "melting point": "135 to 136"},
      {"smiles": "CC(C)(NCCCn1ccnc1)c1ccc(-c2ccc(O)cc2)cc1", "melting point": "178 to 180"},
      {"smiles": "O=C(CCl)NC[C@@H]1CN2C(=O)C[C@H]2O1", "note": "(racemic)", "melting point": "65 to 66.4"},
      {"smiles": "O=C1c2ccccc2C(=O)N1OS(=O)(=O)c1ccc2ccccc2c1", "melting point": "223 to 225"},
      {"smiles": "O=c1[nH]c(=O)c2ccccc2o1", "melting point": "132 to 133"},
      {"smiles": "CN(CCCCNC(=O)c1ccc2ccccc2c1)C1CCc2ncsc2C1", "note": "(configuration not stated)", "melting point": 122},
      {"smiles": "CCOC(=O)c1ccc(-c2ccc(OCCCN)c(-c3ccc4c(c3)C(C)(C)CCC4(C)C)c2)cc1", "melting point": 155},
      {"smiles": "N#Cc1cccc2c1NCC2", "melting point": "66 to 67"},
      {"smiles": "COc1ccc(-c2ccc(C#N)cc2)nc1", "melting point": "93 to 95"},
      {"smiles": "COCCn1cc2c(n1)c(N)nc1ccccc12", "melting point": "230 to 231"},
      {"smiles": "CCCCCCCCCCc1cc(CCCCCCCCCC)cc(N(CC(=O)O)CC(=O)O)c1", "melting point": "78 to 81"},
      {"smiles": "COc1cccc2c1OCC(C#N)=C2", "melting point": "105 to 106"},
      {"smiles": "COc1ccc(Cn2cc[nH]c2=S)cc1F", "melting point": "156 to 157"},
      {"smiles": "COC(=O)CCSSN=C1C(=O)N(C)C(=O)N1c1ccccc1F", "melting point": "81 to 84.5"},
      {"smiles": "COCc1cnc2c(NC(=O)c3ccccc3C(F)(F)F)cccc2c1N1CCN(C)C1=O", "melting point": 156},
      {"smiles": "CCN1C(c2nnc(-c3ccccc3)o2)=C(OC(=O)C2CCCC2)c2ccccc2S1(=O)=O", "melting point": "194 to 196"},
      {"smiles": "Nc1ccc(CN2CCNC(=O)C2=O)cc1", "melting point": "246 to 249"},
      {"smiles": "COc1cc2ncnc(N3CCC(CN4CCCN(C(C)C)S4(=O)=O)CC3)c2cc1OC", "melting point": "158 to 161"},
      {"smiles": "Cc1cccc2c1C=Cc1ccccc1C2O", "note": "(configuration not stated)", "melting point": "114 to 116"},
      {"smiles": "COCc1ccc(OC)c(Br)c1O", "melting point": "98 to 100"},
      {"smiles": "CCOC(=O)c1cnc2c3cc(NC(=O)CC(C)(C)C)ccc3ncn2c1=O", "melting point": "253 to 254"},
      {"smiles": "CC(CN1C(=O)C2(COc3cc4c(cc32)CCO4)c2ccccc21)OCc1ccccc1", "note": "(configuration not stated)", "melting point": "45 to 47"},
      {"smiles": "CC(C)(C)OC(=O)Nc1ccc(CC(=O)N2CCC(c3[nH]nc4c3C(=O)c3c(NC(=O)NN5CCOCC5)cccc3-4)CC2)cc1", "melting point": "177 to 178"},
      {"smiles": "CC(=O)Nc1ccc(F)c(F)c1", "melting point": "127 to 128"},
      {"smiles": "CCCCCC(CC(=O)Nc1cc(C(N)=O)ccc1C(C)(C)C)c1ccc(C(O)CCC)cc1OC", "note": "(configuration not stated)", "melting point": "153 to 155"},
      {"smiles": "COc1cccc2c1CC(N(CCCc1cn(C)c3ccc(F)cc13)CC1CC1)CO2", "note": "(configuration not stated)", "melting point": 86},
      {"smiles": "CC(C)(C)OC(=O)N[C@@H](CCCCNC[C@H](O)CCl)C(=O)OC(C)(C)C", "melting point": "87 to 88"}
    ]}
  ]
}
